Test: xn = mol fraction of the nth substance listed
Conditions: 101.3 kPa, Liquid; for viscosity: Concentric cylinders viscometry; for mass density: Vibrating tube method

O=S1(=O)CCCC1 [sulfolane] + CCCC[n+]1ccn(C)c1.O=S(=O)([N-]S(=O)(=O)C(F)(F)F)C(F)(F)F
Conditions | mass density [kg/m3] | viscosity [mPa·s]
293.15 K, x2 = 0.1 | 1315.1 | 16.7
293.15 K, x2 = 0.1999 | 1345.9 | 19.8
293.15 K, x2 = 0.3001 | 1368.7 | 23.8
293.15 K, x2 = 0.4 | 1386.1 | 28.2
293.15 K, x2 = 0.5001 | 1400.1 | 32.9
293.15 K, x2 = 0.5999 | 1411.3 | 38
293.15 K, x2 = 0.7 | 1420.8 | 43.2
293.15 K, x2 = 0.7995 | 1428.6 | 49.6
293.15 K, x2 = 0.8985 | 1435.3 | 55.1
298.15 K, x2 = 0 | 1266.4 | 11.9
298.15 K, x2 = 0.1 | 1310.6 | 14.8
298.15 K, x2 = 0.1999 | 1341.3 | 17
298.15 K, x2 = 0.3001 | 1364.6 | 19.9
298.15 K, x2 = 0.4 | 1381.3 | 23.2
298.15 K, x2 = 0.5001 | 1395.3 | 26.7
298.15 K, x2 = 0.5999 | 1406.5 | 30.8
298.15 K, x2 = 0.7 | 1416 | 34.7
298.15 K, x2 = 0.7995 | 1423.8 | 39.8
298.15 K, x2 = 0.8985 | 1430.5 | 44.4
303.15 K, x2 = 0 | 1259.4 | 10.5
303.15 K, x2 = 0.1 | 1306.1 | 12.8
303.15 K, x2 = 0.1999 | 1336.7 | 14.3
303.15 K, x2 = 0.3001 | 1359.1 | 16.5
303.15 K, x2 = 0.4 | 1376.6 | 18.8
303.15 K, x2 = 0.5001 | 1390.5 | 21.5
303.15 K, x2 = 0.5999 | 1401.7 | 24.7
303.15 K, x2 = 0.7 | 1411.1 | 27.3
303.15 K, x2 = 0.7995 | 1419 | 31.1
303.15 K, x2 = 0.8985 | 1425.7 | 35.1
313.15 K, x2 = 0 | 1251.7 | 8.1
313.15 K, x2 = 0.1 | 1297 | 9.7
313.15 K, x2 = 0.1999 | 1327.5 | 10.7
313.15 K, x2 = 0.3001 | 1349.4 | 12.3
313.15 K, x2 = 0.4 | 1367.2 | 13.4
313.15 K, x2 = 0.5001 | 1381.1 | 15.4
313.15 K, x2 = 0.5999 | 1392.2 | 17.6
313.15 K, x2 = 0.7 | 1401.6 | 18.7
313.15 K, x2 = 0.7995 | 1409.4 | 21.2
313.15 K, x2 = 0.8985 | 1416.1 | 24.4
323.15 K, x2 = 0 | 1244 | 6.4
323.15 K, x2 = 0.1 | 1288 | 7.7
323.15 K, x2 = 0.1999 | 1318.3 | 8.4
323.15 K, x2 = 0.3001 | 1340.2 | 9.7
323.15 K, x2 = 0.4 | 1357.8 | 10.2
323.15 K, x2 = 0.5001 | 1371.6 | 11.9
323.15 K, x2 = 0.5999 | 1382.8 | 13.6
323.15 K, x2 = 0.7 | 1392.1 | 14.1
323.15 K, x2 = 0.7995 | 1399.9 | 16
323.15 K, x2 = 0.8985 | 1406.6 | 18.4
333.15 K, x2 = 0 | 1235.4 | 5.2
333.15 K, x2 = 0.1 | 1279 | 5.7
333.15 K, x2 = 0.1999 | 1309 | 6.3
333.15 K, x2 = 0.3001 | 1331 | 7.3
333.15 K, x2 = 0.4 | 1348.4 | 7.5
333.15 K, x2 = 0.5001 | 1362.2 | 9.2
333.15 K, x2 = 0.5999 | 1373.3 | 10.5
333.15 K, x2 = 0.7 | 1382.6 | 10.8
333.15 K, x2 = 0.7995 | 1390.4 | 12.2
333.15 K, x2 = 0.8985 | 1397.1 | 14.1
343.15 K, x2 = 0 | 1225 | 4.3
343.15 K, x2 = 0.1 | 1269.9 | 4.6
343.15 K, x2 = 0.1999 | 1299.8 | 5.1
343.15 K, x2 = 0.3001 | 1321.8 | 5.9
343.15 K, x2 = 0.4 | 1339.1 | 6.2
343.15 K, x2 = 0.5001 | 1352.8 | 7.3
343.15 K, x2 = 0.5999 | 1363.9 | 8.2
343.15 K, x2 = 0.7 | 1373.2 | 8.6
343.15 K, x2 = 0.7995 | 1381 | 9.5
343.15 K, x2 = 0.8985 | 1387.6 | 10.7

O=S1(=O)CCCC1 [sulfolane] + OCC(O)CO
Conditions | mass density [kg/m3] | viscosity [mPa·s]
313.15 K, x2 = 0 | 1251.7 | 8.1
313.15 K, x2 = 0.1002 | 1249.6 | 8.5
313.15 K, x2 = 0.2002 | 1248.8 | 10.5
313.15 K, x2 = 0.3002 | 1248.4 | 14.4
313.15 K, x2 = 0.4001 | 1247.8 | 19.2
313.15 K, x2 = 0.5001 | 1247.5 | 30.4
313.15 K, x2 = 0.5999 | 1247.5 | 46.2
313.15 K, x2 = 0.6999 | 1247.5 | 70.7
313.15 K, x2 = 0.7999 | 1248.5 | 101
313.15 K, x2 = 0.8993 | 1248.9 | 164
323.15 K, x2 = 0 | 1244 | 6.4
323.15 K, x2 = 0.1002 | 1240.9 | 7.2
323.15 K, x2 = 0.2002 | 1240.1 | 8.5
323.15 K, x2 = 0.3002 | 1239.7 | 11.2
323.15 K, x2 = 0.4001 | 1239.2 | 14.4
323.15 K, x2 = 0.5001 | 1239.1 | 22
323.15 K, x2 = 0.5999 | 1239.2 | 32.2
323.15 K, x2 = 0.6999 | 1239.7 | 45.9
323.15 K, x2 = 0.7999 | 1241.2 | 66.5
323.15 K, x2 = 0.8993 | 1241.9 | 103
333.15 K, x2 = 0 | 1235.4 | 5.2
333.15 K, x2 = 0.1002 | 1232.1 | 5.8
333.15 K, x2 = 0.2002 | 1231.3 | 6.6
333.15 K, x2 = 0.3002 | 1231 | 8.3
333.15 K, x2 = 0.4001 | 1230.7 | 10.4
333.15 K, x2 = 0.5001 | 1230.7 | 14.6
333.15 K, x2 = 0.5999 | 1231.1 | 20.3
333.15 K, x2 = 0.6999 | 1232 | 28.8
333.15 K, x2 = 0.7999 | 1233.7 | 41.8
333.15 K, x2 = 0.8993 | 1234.8 | 61.7
343.15 K, x2 = 0 | 1225 | 4.3
343.15 K, x2 = 0.1002 | 1223.2 | 4.7
343.15 K, x2 = 0.2002 | 1222.5 | 5.3
343.15 K, x2 = 0.3002 | 1222.3 | 6.3
343.15 K, x2 = 0.4001 | 1222.3 | 7.7
343.15 K, x2 = 0.5001 | 1222.7 | 10.2
343.15 K, x2 = 0.5999 | 1223.3 | 13.6
343.15 K, x2 = 0.6999 | 1224.1 | 18.5
343.15 K, x2 = 0.7999 | 1226.2 | 26.6
343.15 K, x2 = 0.8993 | 1227.5 | 38
353.15 K, x2 = 0 | 1215 | 3.7
353.15 K, x2 = 0.1002 | 1214.3 | 3.9
353.15 K, x2 = 0.2002 | 1213.7 | 4.3
353.15 K, x2 = 0.3002 | 1213.6 | 4.9
353.15 K, x2 = 0.4001 | 1213.8 | 6
353.15 K, x2 = 0.5001 | 1214.4 | 7.4
353.15 K, x2 = 0.5999 | 1215.3 | 9.8
353.15 K, x2 = 0.6999 | 1216.1 | 12.9
353.15 K, x2 = 0.7999 | 1218.5 | 18
353.15 K, x2 = 0.8993 | 1220.2 | 24.9
363.15 K, x2 = 0 | 1206 | 3.2
363.15 K, x2 = 0.1002 | 1205.3 | 3.3
363.15 K, x2 = 0.2002 | 1204.8 | 3.5
363.15 K, x2 = 0.3002 | 1204.8 | 4
363.15 K, x2 = 0.4001 | 1205.1 | 4.7
363.15 K, x2 = 0.5001 | 1205.9 | 5.8
363.15 K, x2 = 0.5999 | 1206.9 | 7.4
363.15 K, x2 = 0.6999 | 1208 | 9.4
363.15 K, x2 = 0.7999 | 1210.7 | 12.7
363.15 K, x2 = 0.8993 | 1212.7 | 17.1
